Consider 17 compounds from PMC10304174, “Development of Zeise’s Salt Derivatives Bearing Substituted Acetylsalicylic Acid Substructures as Cytotoxic COX Inhibitors” (Pharmaceutics, 2023).

One data set deals with MCF-7 cells. The data set can be described thus: Crystal violet assay, antiproliferative effects in MCF-7 cells. The following applies: MCF-7 (COX-negative), 72 h. The format is cell-based. The method, then:
(§1) In order to investigate the cytotoxic effects in MCF-7 and HT-29 cells, an already published crystal violet assay was used. The cells (HT-29: 3 × 10^3 cells per well in 100 µL of medium; MCF-7: 2 × 10^3 cells per well in 100 µL of medium) were seeded in their exponential growth phase in completed DMEM into 96-well microtiter plates in quadruples. […] Cells were then fixed with a solution of 1% (v/v) glutaric dialdehyde in PBS. In order to determine the cell biomass, the chromatin of the attached cells was stained with crystal violet, and the bound dye was extracted with EtOH (70%). The absorbance was measured at 590 nm. Mean values ± SD of ≥2 independent experiments were calculated, and the activity of the complexes was expressed as the cell mass of the vehicle-treated control, which was set to 100%.
(§2) The compounds were investigated regarding their cytotoxicity (in vitro) employing an already published crystal violet assay. It is based on the quantification of the cell biomass of living cells by staining the chromatin. In order to evaluate the possible influence of COX inhibition on cell growth, Zeise’s salt derivatives were investigated comparatively in HT-29 and MCF-7 cell lines.

For another data set, the system named is HT-29 cells. The data set is described as follows: Crystal violet assay, antiproliferative effects in HT-29 cells. The following applies: HT-29 (COX-1/2-positive), 72 h. Type of data set: cell-based. How it is done:
as §1, §2

Data set [1] can be described thus: Complex stability by capillary electrophoresis (decrease of initial complex over time). The format is physicochemical. The following applies: MeOH/water (50/50, v/v), 1 mM, 37 °C, CE. The method, then:
The analysis was performed as previously described. A 50 mM sodium tetraborate solution (pH = 9.3, adjusted with 1 M NaOH), served as background electrolyte (BGE). Washing of novel capillaries consecutively with 1 M NaOH (45 min), water (45 min), and BGE (45 min) was performed. The hydrodynamic injection mode was utilized to introduce the samples into the capillary (50 mbar for 2 s). The capillary was kept at 25 °C, and the autosampler was thermostatted at 37 °C with an external water bath. For separation, the voltage was set to 20 kV, and the detection was carried out at the wavelength of 230 nm. Before each measurement, flushing of the capillary with 0.1 M NaOH (3 min), water (3 min), and BGE (5 min) took place. The samples were dissolved in methanol (MeOH) and further diluted in equal parts by volume with water to give a final concentration of 1 mM. Triple determinations were performed, and the half-lives (τ½) are presented as mean ± SD of ≥3 independent experiments. Samples, washing solutions, and buffers were filtered through a membrane with 0.22 µm porosity and degassed by ultrasonication before use. To simplify the reaction dynamics from a possible second-order to pseudo-first-order, one of two reactants must be present in great excess (>10 to 25-fold). If this condition is fulfilled, logarithmic plotting of the gradual decrease in the other reactant’s concentration (or increase in the concentration of a product, respectively) against the time yields a straight line, and half-lives can be calculated.
An already-established method was used to study the stability of the X-ASA-Prop-PtCl3 and X-ASA-But-PtCl3 complexes. The degradation products were separated by capillary electrophoresis using a fused-silica capillary ([…] × 75 µm, effective length: 56 cm, capillary temperature: 25 °C) and a 50 mM tetraborate buffer (pH = 9.3) as BGE. For separation, the voltage was set to 20 kV and the compounds were detected at 230 nm. Benzoic acid was used as an internal standard. Exemplary electropherograms of each complex can be found in the Supplementary Material (Figures S1–S24).
The complexes (1 mM) were dissolved in MeOH or MeOH/water (50/50, v/v) and stored at 37 °C. The decrease in the initial amount of complex was monitored time-dependently by CE, and the half-life (τ½) was calculated (Table 2).

The target in another data set is T1, COX-2 (Homo sapiens, UniProt P35354).
T1 construct: purchased Cayman Chemicals
T1 sequence (P35354 18-604): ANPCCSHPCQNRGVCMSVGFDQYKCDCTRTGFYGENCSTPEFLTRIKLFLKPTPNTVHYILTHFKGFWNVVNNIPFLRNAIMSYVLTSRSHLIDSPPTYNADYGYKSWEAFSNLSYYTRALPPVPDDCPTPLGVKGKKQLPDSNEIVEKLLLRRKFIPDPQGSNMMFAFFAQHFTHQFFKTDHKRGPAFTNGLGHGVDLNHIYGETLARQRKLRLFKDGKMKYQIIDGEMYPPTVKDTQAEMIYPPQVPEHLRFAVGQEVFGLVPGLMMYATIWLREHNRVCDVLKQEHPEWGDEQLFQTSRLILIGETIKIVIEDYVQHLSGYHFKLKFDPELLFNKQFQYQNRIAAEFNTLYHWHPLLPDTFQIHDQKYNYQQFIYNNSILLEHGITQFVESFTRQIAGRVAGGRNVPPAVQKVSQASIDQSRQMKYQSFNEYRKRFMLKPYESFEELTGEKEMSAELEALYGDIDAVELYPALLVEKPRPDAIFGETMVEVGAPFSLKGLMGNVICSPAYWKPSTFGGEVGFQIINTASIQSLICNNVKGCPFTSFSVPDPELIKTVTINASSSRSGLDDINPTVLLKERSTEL
The data set can be described thus: COX Inhibitor Screening Assay (EIA) on isolated COX-2 isoenzyme. Conditions: 1 µM, incubation 10 min. The format is biochemical. How it is done:
The incubation of the respective complexes with the isoenzymes was exactly 10 min. The values of COX inhibition were calculated as the mean of duplicates and shown as the mean ± SD of ≥2 independent experiments.

Regarding `CC(=O)Oc1c(C)cccc1C(=O)OCC[CH]1[CH2][Pt-]1([Cl])([Cl])[Cl].[K+]` (stereo not drawn) [3-CH3-ASA-But-PtCl3, Potassium trichlorido[η^2-(but-3-en-1-yl)-2-acetoxy-3-methylbenzoate]platinate(II)], the IC50 amounted to 45.6 ± 7.2 µM in the data set with MCF-7 cells and 18 ± 2.4 µM in the data set on HT-29 cells. Further, the “Half-life (τ½)” value in data set [1] stood at 45.9 ± 6.0 h.
For `CC(=O)Oc1c(C)cccc1C(=O)OC[CH]1[CH2][Pt-]1([Cl])([Cl])[Cl].[K+]` (stereo not drawn) [3-CH3-ASA-Prop-PtCl3, Potassium trichlorido[η^2-(prop-2-en-1-yl)-2-acetoxy-3-methylbenzoate]platinate(II)], in that order: 71.4 ± 3.1 µM, 27.8 ± 3.4 µM and 0.585 ± 0.0383 h.
For `CC(=O)Oc1c(Cl)cccc1C(=O)OCC[CH]1[CH2][Pt-]1([Cl])([Cl])[Cl].[K+]` (stereo not drawn) [3-Cl-ASA-But-PtCl3, Potassium trichlorido[η^2-(but-3-en-1-yl)-2-acetoxy-3-chlorobenzoate]platinate(II)], in that order: 33.5 ± 1.9 µM, 43 ± 10.9 µM and 47.0 ± 14.0 h.
For `CC(=O)Oc1c(F)cccc1C(=O)OCC[CH]1[CH2][Pt-]1([Cl])([Cl])[Cl].[K+]` (stereo not drawn) [3-F-ASA-But-PtCl3, Potassium trichlorido[η^2-(but-3-en-1-yl)-2-acetoxy-3-fluorobenzoate]platinate(II)], in that order: 97.4 ± 17.6 µM, 69.4 ± 1.5 µM and 51.9 ± 2.5 h.
As to `CC(=O)Oc1c(F)cccc1C(=O)OC[CH]1[CH2][Pt-]1([Cl])([Cl])[Cl].[K+]` (stereo not drawn) [3-F-ASA-Prop-PtCl3, Potassium trichlorido[η^2-(prop-2-en-1-yl)-2-acetoxy-3-fluorobenzoate]platinate(II)], on COX-2, the “Inhibition of COX-2” value stood at 20.7%. Moreover, the figures for the IC50 in the data set with MCF-7 cells and in the data set with HT-29 cells were 85.2 ± 21.8 µM and 86.9 ± 3.9 µM, respectively. For the same compound, in data set [1], the “Half-life (τ½)” value is 0.508 ± 0.0233 h.
As to `CC(=O)Oc1cc(C)ccc1C(=O)OCC[CH]1[CH2][Pt-]1([Cl])([Cl])[Cl].[K+]` (stereo not drawn) [4-CH3-ASA-But-PtCl3, Potassium trichlorido[η^2-(but-3-en-1-yl)-2-acetoxy-4-methylbenzoate]platinate(II)], the IC50 in the data set with MCF-7 cells worked out at 38.8 ± 6.5 µM; in the data set with HT-29 cells it was 27.1 ± 1.5 µM. In addition, the “Half-life (τ½)” value in data set [1] is on record as 65.7 ± 7.2 h.
The matching figures for `CC(=O)Oc1cc(F)ccc1C(=O)OCC[CH]1[CH2][Pt-]1([Cl])([Cl])[Cl].[K+]` (stereo not drawn) [4-F-ASA-But-PtCl3, Potassium trichlorido[η^2-(but-3-en-1-yl)-2-acetoxy-4-fluorobenzoate]platinate(II)]: 105.9 ± 0.4 µM, 89.2 ± 3.5 µM and 49.9 ± 4.5 h.
Regarding `CC(=O)Oc1ccc(Cl)cc1C(=O)OCC[CH]1[CH2][Pt-]1([Cl])([Cl])[Cl].[K+]` (stereo not drawn) [5-Cl-ASA-But-PtCl3, Potassium trichlorido[η^2-(but-3-en-1-yl)-2-acetoxy-5-chlorobenzoate]platinate(II)], the IC50 in the data set with MCF-7 cells amounted to 28.2 ± 4.5 µM; in the data set with HT-29 cells, 49.1 ± 6.2 µM. In addition, in data set [1], the “Half-life (τ½)” value is reported as 62.4 ± 1.6 h.
For `CC(=O)Oc1ccc(F)cc1C(=O)OCC[CH]1[CH2][Pt-]1([Cl])([Cl])[Cl].[K+]` (stereo not drawn) [5-F-ASA-But-PtCl3, Potassium trichlorido[η^2-(but-3-en-1-yl)-2-acetoxy-5-fluorobenzoate]platinate(II)], in that order: 93.8 ± 10.8 µM, 75.8 ± 13.2 µM and 48.1 ± 4.3 h.
For `CC(=O)Oc1ccc(F)cc1C(=O)OC[CH]1[CH2][Pt-]1([Cl])([Cl])[Cl].[K+]` (stereo not drawn) [5-F-ASA-Prop-PtCl3, Potassium trichlorido[η^2-(prop-2-en-1-yl)-2-acetoxy-5-fluorobenzoate]platinate(II)], in that order: 106 ± 4.1 µM, 110 ± 21.7 µM and 0.46 ± 0.02 h.
The matching figures for `CC(=O)Oc1cccc(C)c1C(=O)OCC[CH]1[CH2][Pt-]1([Cl])([Cl])[Cl].[K+]` (stereo not drawn) [6-CH3-ASA-But-PtCl3, Potassium trichlorido[η^2-(but-3-en-1-yl)-2-acetoxy-6-methylbenzoate]platinate(II)]: 35.3 ± 0.9 µM, 20.2 ± 0.2 µM and 35.0 ± 3.7 h.
Take `CC(=O)Oc1cccc(C)c1C(=O)OC[CH]1[CH2][Pt-]1([Cl])([Cl])[Cl].[K+]` (stereo not drawn) [6-CH3-ASA-Prop-PtCl3, Potassium trichlorido[η^2-(prop-2-en-1-yl)-2-acetoxy-6-methylbenzoate]platinate(II)]: the results for the IC50 in the data set on MCF-7 cells and in the data set with HT-29 cells were 76.2 ± 1.4 µM and 27.4 ± 1.4 µM, respectively. In addition, in data set [1], the “Half-life (τ½)” value stood at 0.747 ± 0.0183 h.
The matching figures for `CC(=O)Oc1cccc(Cl)c1C(=O)OCC[CH]1[CH2][Pt-]1([Cl])([Cl])[Cl].[K+]` (stereo not drawn) [6-Cl-ASA-But-PtCl3, Potassium trichlorido[η^2-(but-3-en-1-yl)-2-acetoxy-6-chlorobenzoate]platinate(II)]: 42.3 ± 8.3 µM, 57.5 ± 19.2 µM and 51.8 ± 7.7 h.
The matching figures for `CC(=O)Oc1cccc(Cl)c1C(=O)OC[CH]1[CH2][Pt-]1([Cl])([Cl])[Cl].[K+]` (stereo not drawn) [6-Cl-ASA-Prop-PtCl3, Potassium trichlorido[η^2-(prop-2-en-1-yl)-2-acetoxy-6-chlorobenzoate]platinate(II)]: 85.9 ± 9.2 µM, 38.4 ± 3.4 µM and 0.658 ± 0.0317 h.
For `CC(=O)Oc1cccc(F)c1C(=O)OCC[CH]1[CH2][Pt-]1([Cl])([Cl])[Cl].[K+]` (stereo not drawn) [6-F-ASA-But-PtCl3, Potassium trichlorido[η^2-(but-3-en-1-yl)-2-acetoxy-6-fluorobenzoate]platinate(II)], in that order: 92.6 ± 23.8 µM, 99.7 ± 0.4 µM and 34.6 ± 1.5 h.
Turning to `CC(=O)Oc1cccc(F)c1C(=O)OC[CH]1[CH2][Pt-]1([Cl])([Cl])[Cl].[K+]` (stereo not drawn) [6-F-ASA-Prop-PtCl3, Potassium trichlorido[η^2-(prop-2-en-1-yl)-2-acetoxy-6-fluorobenzoate]platinate(II)], the IC50 in the data set with MCF-7 cells is not below 200 µM; in the data set with HT-29 cells, 114 ± 7.1 µM. In addition, in data set [1], the “Half-life (τ½)” value amounted to 0.485 ± 0.005 h.
As for `N.N.[Cl][Pt][Cl]` [Cisplatin, reference compound], the IC50 in the data set with MCF-7 cells is 3.7 ± 0.3 µM; in the data set with HT-29 cells, 2.6 ± 0.1 µM.

Usually IC50 stands for the concentration that inhibits the measured activity by half.
